Experimental data reported in patent US12280088B2, “Dry powder formulation of caveolin-1 peptides and methods of use thereof” (BOARD OF REGENTS, THE UNIVERSITY OF TEXAS SYSTEM, priority 2018, dated 2025).
Converted amounts (≈) assume the structure as drawn. Read-outs that look alike come from different tables or passages of the source. Square brackets hold non-standard residues; d marks the D form. Peptide text beside a SMILES is read from it. Orn = NCCC[C@H](N)C(=O)O

Legend:
[1] = Appearance of solutions in solubility study of variants; assay type: physicochemical
Procedure: (§1) Solubility study of variants was performed by adding variants powders into solvent in concentration of 5 mg/ml and then vortexing for 3 min. Observe the appearance of solutions in 5 min. Add more powder (˜5 mg/ml each time) and repeat vortex and observe until precipitation or gelation occurs.

[2] = pH-solubility of polypeptide variants; assay type: physicochemical; conditions: read-out: pH-solubility, Concentration; for solubility thermodynamic at 3 min: a: precipitate, supernatant assayed; for solubility at 3 min: b: high viscous solution, aliquot assayed
Procedure: as §1

Compound | Appearance of solutions ([1]; pH 4.5, 5 mg/ml) | Appearance of solutions ([1]; pH 4.5, 10 mg/ml) | Appearance of solutions ([1]; pH 4.5, 15 mg/ml) | Appearance of solutions ([1]; pH 4.5, 20 mg/ml) | Appearance of solutions ([1]; pH 4.5, 25 mg/ml) | Appearance of solutions ([1]; pH 7.5, 5 mg/ml) | Appearance of solutions ([1]; pH 7.5, 10 mg/ml) | Appearance of solutions ([1]; pH 8.5, 5 mg/ml) | Appearance of solutions ([1]; pH 8.5, 10 mg/ml) | solubility thermodynamic at 3 min ([2]; pH 4.5) [mg/mL] | solubility thermodynamic at 3 min ([2]; pH 5.5) [mg/mL] | solubility thermodynamic at 3 min ([2]; pH 6.5) [mg/mL] | solubility thermodynamic at 3 min ([2]; pH 7.5) [mg/mL] | solubility thermodynamic at 3 min ([2]; pH 8.5) [mg/mL] | Appearance of solutions ([1]; pH 4.5, 40 mg/ml) | Appearance of solutions ([1]; pH 5.5, 5 mg/ml) | Appearance of solutions ([1]; pH 7.5, 15 mg/ml) | Appearance of solutions ([1]; pH 7.5, 20 mg/ml) | Appearance of solutions ([1]; pH 8.5, 15 mg/ml) | Appearance of solutions ([1]; pH 8.5, 20 mg/ml) | further results
CC(C)[C@H](NC(=O)[C@@H](NC(=O)[C@H](Cc1ccccc1)NC(=O)[C@@H](NC(=O)[C@@H](NC(=O)[C@H](Cc1ccccc1)NC(=O)[C@H](CO)NC(=O)[C@H](C)NC(=O)[C@H](CCCCN)NC(=O)CNC(=O)[C@H](CCC(=O)O)NC(=O)[C@@H](C)NC(=O)[C@@H](C)N)[C@@H](C)O)[C@@H](C)O)[C@@H](C)O)C(=O)N[C@H](C(=O)N[C@@H](CCCCN)C(=O)NCC(=O)N[C@@H](CO)C(=O)N[C@H](C)C(=O)N[C@H](C)C(N)=O)[C@@H](C)O [SEQ ID NO.7] (H-[dA][dA]EGKASFTTFTVTKGS[dA][dA]-NH2) | Clear | Clear | Clear | Clear | Clear | Clear | Clear | Clear | Clear |  | 22.3 ± 0.1 (≈ 12.1 mM) |  |  |  | Gel | Clear | Clear | Clear | Clear | Clear | Appearance of solutions ([1]; pH 5.5, 10 mg/ml): Clear; Appearance of solutions ([1]; pH 5.5, 15 mg/ml): Clear; Appearance of solutions ([1]; pH 7.5, 25 mg/ml): Clear; Appearance of solutions ([1]; pH 8.5, 25 mg/ml): Clear; solubility at 3 min ([2]; pH 4.5): ≥ 32 mg/mL; solubility at 3 min ([2]; pH 6.5): ≥ 30.5 mg/mL; solubility at 3 min ([2]; pH 7.5): ≥ 35.3 mg/mL; solubility at 3 min ([2]; pH 8.5): ≥ 23.8 mg/mL
CC(=O)N[C@H](C)C(=O)N[C@H](C)C(=O)N[C@@H](CCC(=O)O)C(=O)NCC(=O)N[C@@H](CCCCN)C(=O)N[C@@H](C)C(=O)N[C@@H](CO)C(=O)N[C@@H](Cc1ccccc1)C(=O)N[C@H](C(=O)N[C@H](C(=O)N[C@@H](Cc1ccccc1)C(=O)N[C@H](C(=O)N[C@H](C(=O)N[C@H](C(=O)N[C@@H](CCCCN)C(=O)NCC(=O)N[C@@H](CO)C(=O)N[C@H](C)C(=O)N[C@H](C)C(N)=O)[C@@H](C)O)C(C)C)[C@@H](C)O)[C@@H](C)O)[C@@H](C)O [SEQ ID NO.8] (Ac-[dA][dA]EGKASFTTFTVTKGS[dA][dA]-NH2) | Clear | Clear | Clear | Clear | Gel | Clear | Clear | Clear | Clear |  | 23.6 ± 0.6 (≈ 12.5 mM) | 27.3 ± 1.2 (≈ 14.5 mM) | 28.3 ± 2.2 (≈ 15 mM) | 20.6 ± 2.4 (≈ 10.9 mM) |  | Clear | Clear |  | Clear | Clear | solubility at 3 min ([2]; pH 4.5): ≥ 24.2 mg/mL
CC[C@H](C)[C@H](NC(=O)CNC(=O)[C@@H](N)CC(=O)O)C(=O)N[C@@H](Cc1c[nH]c2ccccc12)C(=O)N[C@@H](CCCCN)C(=O)N[C@@H](C)C(=O)N[C@@H](CO)C(=O)N[C@@H](Cc1ccccc1)C(N)=O [SEQ ID NO.21] (H-DGIWKASF-NH2) |  |  |  |  |  |  |  |  |  | 0.62 ± 0.04 (≈ 0.672 mM) | 0.14 ± 0.02 (≈ 0.152 mM) | 0.26 ± 0.07 (≈ 0.282 mM) | 0.25 ± 0.03 (≈ 0.271 mM) | 0.17 ± 0.04 (≈ 0.184 mM) |  |  |  |  |  |  | 
CC(C)[C@H](N)C(=O)N[C@H](C(=O)N[C@@H](CCCCN)C(=O)N[C@@H](Cc1ccc(O)cc1)C(=O)N[C@@H](Cc1c[nH]c2ccccc12)C(=O)N[C@@H](Cc1ccccc1)C(=O)N[C@@H](Cc1ccc(O)cc1)C(=O)N[C@@H](CCCNC(=N)N)C(N)=O)[C@@H](C)O [SEQ ID NO.22] (H-VTKYWFYR-NH2) | Clear | Clear | Clear | Clear | Clear | Clear | Clear | Clear | Clear | 57.2 ± 9.1 (≈ 49.2 mM) | 2.98 ± 0.1 (≈ 2.57 mM) | 3.49 ± 0.6 (≈ 3.01 mM) | 61.5 ± 1.7 (≈ 53 mM) | 29.1 ± 3.5 (≈ 25.1 mM) | Clear |  | Clear | Clear | Clear | Clear | Appearance of solutions ([1]; pH 4.5, 30 mg/ml): Clear; Appearance of solutions ([1]; pH 4.5, 35 mg/ml): Clear; Appearance of solutions ([1]; pH 4.5, 45 mg/ml): Clear; Appearance of solutions ([1]; pH 4.5, 50 mg/ml): Clear; Appearance of solutions ([1]; pH 4.5, 55 mg/ml): Clear; Appearance of solutions ([1]; pH 4.5, 60 mg/ml): Clear; Appearance of solutions ([1]; pH 7.5, 25 mg/ml): Clear; Appearance of solutions ([1]; pH 7.5, 30 mg/ml): Clear; Appearance of solutions ([1]; pH 7.5, 35 mg/ml): Clear; Appearance of solutions ([1]; pH 7.5, 40 mg/ml): Clear; Appearance of solutions ([1]; pH 7.5, 45 mg/ml): Clear; Appearance of solutions ([1]; pH 7.5, 50 mg/ml): Clear; Appearance of solutions ([1]; pH 7.5, 55 mg/ml): Clear; Appearance of solutions ([1]; pH 7.5, 60 mg/ml): Clear; Appearance of solutions ([1]; pH 7.5, 65 mg/ml): Turbid

The next lines start with results.

Appearance of solutions ([1]; pH 4.5, 5 mg/ml) | Appearance of solutions ([1]; pH 4.5, 10 mg/ml) | Appearance of solutions ([1]; pH 4.5, 15 mg/ml) | Appearance of solutions ([1]; pH 4.5, 20 mg/ml) | Appearance of solutions ([1]; pH 4.5, 25 mg/ml) | Appearance of solutions ([1]; pH 7.5, 5 mg/ml) | Appearance of solutions ([1]; pH 7.5, 10 mg/ml) | Appearance of solutions ([1]; pH 8.5, 5 mg/ml) | Appearance of solutions ([1]; pH 8.5, 10 mg/ml) | solubility thermodynamic at 3 min ([2]; pH 4.5) [mg/mL] | solubility thermodynamic at 3 min ([2]; pH 5.5) [mg/mL] | solubility thermodynamic at 3 min ([2]; pH 6.5) [mg/mL] | solubility thermodynamic at 3 min ([2]; pH 7.5) [mg/mL] | solubility thermodynamic at 3 min ([2]; pH 8.5) [mg/mL] | Appearance of solutions ([1]; pH 4.5, 40 mg/ml) | Appearance of solutions ([1]; pH 5.5, 5 mg/ml) | Appearance of solutions ([1]; pH 7.5, 15 mg/ml) | Appearance of solutions ([1]; pH 7.5, 20 mg/ml) | Appearance of solutions ([1]; pH 8.5, 15 mg/ml) | Appearance of solutions ([1]; pH 8.5, 20 mg/ml) | Compound | further results
Clear | Clear | Clear | Clear | Clear | Clear | Clear | Clear | Clear | 25.4 ± 0.8 (≈ 18.5 mM) | 4 ± 0.2 (≈ 2.91 mM) | 5.9 ± 0.4 (≈ 4.29 mM) | 16.7 ± 0.5 (≈ 12.1 mM) | 10.8 ± 1.1 (≈ 7.86 mM) |  |  |  |  |  |  | CC(C)[C@H](NC(=O)[C@@H](NC(=O)[C@H](Cc1ccccc1)NC(=O)[C@@H](NC(=O)[C@@H](NC(=O)[C@H](Cc1ccccc1)NC(=O)[C@H](CO)NC(=O)[C@H](C)NC(=O)[C@@H](N)CCCCN)[C@@H](C)O)[C@@H](C)O)[C@@H](C)O)C(=O)N[C@H](C(=O)N[C@@H](CCCCN)C(=O)NCC(=O)N[C@@H](CO)C(=O)O)[C@@H](C)O [SEQ ID NO.4] (H-KASFTTFTVTKGS-OH) | 
Clear | Clear | Clear | Clear | Clear | Clear | Clear | Clear | Clear | 33.9 ± 0.9 (≈ 26.3 mM) | 3.6 ± 0.8 (≈ 2.79 mM) | 5.5 ± 0.7 (≈ 4.27 mM) | 19.1 ± 0.1 (≈ 14.8 mM) | 14.6 ± 1.6 (≈ 11.3 mM) |  |  | Clear | Clear | Clear |  | CC(C)[C@H](NC(=O)[C@@H](NC(=O)[C@H](Cc1ccccc1)NC(=O)[C@@H](NC(=O)[C@@H](NC(=O)[C@H](Cc1ccccc1)NC(=O)[C@H](CO)NC(=O)[C@H](C)NC(=O)[C@@H](N)CCCN)[C@@H](C)O)[C@@H](C)O)[C@@H](C)O)C(=O)N[C@H](C(=O)N[C@@H](CCCN)C(=O)N[C@@H](CO)C(N)=O)[C@@H](C)O [SEQ ID NO.10, OASFTTFTVTOS-NH2] (H-[Orn]ASFTTFTVT[Orn]S-NH2) | 
